Measurements: ChEMBL document CHEMBL3885881, “DrugMatrix”

Species on record: Rattus norvegicus
Experiment: DrugMatrix - Regimen: Daily Repeat
Assay type: toxicity, organism-based, Sprague-Dawley
Set-up: regimen Daily Repeat, gender Male, age 6-8 weeks
Settings: in vivo, po, route oral GAVAGE, vehicle .5 % CMC; for ABSOLUTE BASOPHIL / ABSOLUTE EOSINOPHIL / ABSOLUTE LYMPHOCYTE / ABSOLUTE MONOCYTE / ABSOLUTE SEGMENTED NEUTROPHIL / BASOPHIL / EOSINOPHIL / ERYTHROCYTE COUNT / HEMATOCRIT / HEMOGLOBIN / LEUKOCYTE COUNT / LYMPHOCYTE / MEAN CORPUSCULAR HEMOGLOBIN / MEAN CORPUSCULAR HEMOGLOBIN CONCENTRATION / MEAN CORPUSCULAR VOLUME / MONOCYTE / NEUTROPHIL / NUCLEATED RED BLOOD CELLS / PLATELET COUNT: tissue Blood; for ALANINE AMINOTRANSFERASE / ALBUMIN / ALKALINE PHOSPHATASE / ASPARTATE AMINOTRANSFERASE / BLOOD UREA NITROGEN / CARBON DIOXIDE / CHLORIDE / CHOLESTEROL / CREATINE PHOSPHOKINASE / CREATININE / GLUCOSE / LACTATE DEHYDROGENASE / LIPASE / PHOSPHORUS / POTASSIUM / SODIUM / TOTAL BILIRUBIN / TOTAL PROTEIN / URIC ACID: tissue Plasma
[1] = 44 mg/kg, 120 h, dose level Low, time 5 day
[2] = 439 mg/kg, 72 h, dose level High, time 3 day
[3] = 439 mg/kg, 120 h, dose level High, time 5 day

With `Brc1ccccc1` [BROMOBENZENE] the “ABSOLUTE BASOPHIL” value [1] was 0 CELLS/uL, the “ABSOLUTE EOSINOPHIL” value [1] was 0 CELLS/uL and the “ABSOLUTE LYMPHOCYTE” value [1] was 9552.67 CELLS/uL. For the same compound, the “ABSOLUTE MONOCYTE” value [1] was 143.67 CELLS/uL, the “ABSOLUTE SEGMENTED NEUTROPHIL” value [1] was 903.67 CELLS/uL and the BASOPHIL [1] was 0%. For the same compound, the EOSINOPHIL [1] was 0%, the “ERYTHROCYTE COUNT” value [1] was 5.33 x10E6/uL and the HEMATOCRIT [1] was 32.83%. The HEMOGLOBIN [1] was 12.7 G/DL, the “LEUKOCYTE COUNT” value [1] was 10.6 x10E3/uL and the LYMPHOCYTE [1] was 90%. For the same compound, the “MEAN CORPUSCULAR HEMOGLOBIN” value [1] was 23.83 pg, the “MEAN CORPUSCULAR HEMOGLOBIN CONCENTRATION” value [1] was 38.7 G/DL and the “MEAN CORPUSCULAR VOLUME” value [1] was 61.57 fL. For the same compound, the MONOCYTE [1] was 1.33%, the NEUTROPHIL [1] was 8.67% and the “NUCLEATED RED BLOOD CELLS” value [1] was 0 /100WBC. The “PLATELET COUNT” value [1] was 1057.33 x10E3/uL, the “ALANINE AMINOTRANSFERASE” value [1] was 40.67 u/L and the ALBUMIN [1] was 4.3 G/DL. The “ALKALINE PHOSPHATASE” value [1] was 334.67 u/L, the “ASPARTATE AMINOTRANSFERASE” value [1] was 69.67 u/L and the “BLOOD UREA NITROGEN” value [1] was 14.67 mg/dL. For the same compound, the “CARBON DIOXIDE” value [1] was 26.33 mmol/L, the CHLORIDE [1] was 101.67 MEQ/L and the CHOLESTEROL [1] was 64.33 mg/dL. For the same compound, the “CREATINE PHOSPHOKINASE” value [1] was 162.67 u/L, the CREATININE [1] was 0.24 mg/dL and the GLUCOSE [1] was 160 mg/dL. For the same compound, the “LACTATE DEHYDROGENASE” value [1] was 86.67 u/L, the LIPASE [1] was 9.33 u/L and the PHOSPHORUS [1] was 11.83 mg/dL. The POTASSIUM [1] was 6.35 MEQ/L, the SODIUM [1] was 144.7 MEQ/L and the “TOTAL BILIRUBIN” value [1] was 0.1 mg/dL. The “TOTAL PROTEIN” value [1] was 6.2 G/DL, the “URIC ACID” value [1] was 1.67 mg/dL and the “ABSOLUTE BASOPHIL” value [2] was 0 CELLS/uL. The “ABSOLUTE EOSINOPHIL” value [2] was 46.33 CELLS/uL, the “ABSOLUTE LYMPHOCYTE” value [2] was 10833.67 CELLS/uL and the “ABSOLUTE MONOCYTE” value [2] was 138 CELLS/uL. The “ABSOLUTE SEGMENTED NEUTROPHIL” value [2] was 1815.33 CELLS/uL, the BASOPHIL [2] was 0% and the EOSINOPHIL [2] was 0.33%. The “ERYTHROCYTE COUNT” value [2] was 4.81 x10E6/uL, the HEMATOCRIT [2] was 30.27% and the HEMOGLOBIN [2] was 11.9 G/DL. The “LEUKOCYTE COUNT” value [2] was 12.83 x10E3/uL, the LYMPHOCYTE [2] was 85.33% and the “MEAN CORPUSCULAR HEMOGLOBIN” value [2] was 24.7 pg. For the same compound, the “MEAN CORPUSCULAR HEMOGLOBIN CONCENTRATION” value [2] was 39.3 G/DL, the “MEAN CORPUSCULAR VOLUME” value [2] was 62.83 fL and the MONOCYTE [2] was 1%. The NEUTROPHIL [2] was 13.33%, the “NUCLEATED RED BLOOD CELLS” value [2] was 0.33 /100WBC and the “PLATELET COUNT” value [2] was 1082.33 x10E3/uL. The “ALANINE AMINOTRANSFERASE” value [2] was 59 u/L, the ALBUMIN [2] was 4.17 G/DL and the “ALKALINE PHOSPHATASE” value [2] was 378.33 u/L. The “ASPARTATE AMINOTRANSFERASE” value [2] was 83.67 u/L, the “BLOOD UREA NITROGEN” value [2] was 15 mg/dL and the “CARBON DIOXIDE” value [2] was 29.33 mmol/L. The CHLORIDE [2] was 100.67 MEQ/L, the CHOLESTEROL [2] was 84.67 mg/dL and the “CREATINE PHOSPHOKINASE” value [2] was 171 u/L. The CREATININE [2] was 0.22 mg/dL, the GLUCOSE [2] was 160 mg/dL and the “LACTATE DEHYDROGENASE” value [2] was 172 u/L. For the same compound, the LIPASE [2] was 12 u/L, the PHOSPHORUS [2] was 12.47 mg/dL and the POTASSIUM [2] was 6.1 MEQ/L. The SODIUM [2] was 143.47 MEQ/L, the “TOTAL BILIRUBIN” value [2] was 0.13 mg/dL and the “TOTAL PROTEIN” value [2] was 5.97 G/DL. For the same compound, the “URIC ACID” value [2] was 1.03 mg/dL, the “ABSOLUTE BASOPHIL” value [3] was 0 CELLS/uL and the “ABSOLUTE EOSINOPHIL” value [3] was 0 CELLS/uL. For the same compound, the “ABSOLUTE LYMPHOCYTE” value [3] was 9268 CELLS/uL, the “ABSOLUTE MONOCYTE” value [3] was 132.4 CELLS/uL and the “ABSOLUTE SEGMENTED NEUTROPHIL” value [3] was 919.6 CELLS/uL. For the same compound, the BASOPHIL [3] was 0%, the EOSINOPHIL [3] was 0% and the “ERYTHROCYTE COUNT” value [3] was 5.45 x10E6/uL. The HEMATOCRIT [3] was 32.3%, the HEMOGLOBIN [3] was 12.54 G/DL and the “LEUKOCYTE COUNT” value [3] was 10.32 x10E3/uL. The LYMPHOCYTE [3] was 89.6%, the “MEAN CORPUSCULAR HEMOGLOBIN” value [3] was 23 pg and the “MEAN CORPUSCULAR HEMOGLOBIN CONCENTRATION” value [3] was 38.82 G/DL. For the same compound, the “MEAN CORPUSCULAR VOLUME” value [3] was 59.26 fL, the MONOCYTE [3] was 1.2% and the NEUTROPHIL [3] was 9.2%. The “NUCLEATED RED BLOOD CELLS” value [3] was 0.2 /100WBC, the “PLATELET COUNT” value [3] was 1078.8 x10E3/uL and the “ALANINE AMINOTRANSFERASE” value [3] was 43.2 u/L. For the same compound, the ALBUMIN [3] was 4.4 G/DL, the “ALKALINE PHOSPHATASE” value [3] was 375.2 u/L and the “ASPARTATE AMINOTRANSFERASE” value [3] was 72.8 u/L. The “BLOOD UREA NITROGEN” value [3] was 16.2 mg/dL, the “CARBON DIOXIDE” value [3] was 25.2 mmol/L and the CHLORIDE [3] was 102.4 MEQ/L. For the same compound, the CHOLESTEROL [3] was 77.2 mg/dL, the “CREATINE PHOSPHOKINASE” value [3] was 262.4 u/L and the CREATININE [3] was 0.2 mg/dL. The GLUCOSE [3] was 153.6 mg/dL, the “LACTATE DEHYDROGENASE” value [3] was 118.8 u/L and the LIPASE [3] was 9.6 u/L. The PHOSPHORUS [3] was 12.5 mg/dL, the POTASSIUM [3] was 6.84 MEQ/L and the SODIUM [3] was 144.22 MEQ/L. For the same compound, the “TOTAL BILIRUBIN” value [3] was 0.18 mg/dL, the “TOTAL PROTEIN” value [3] was 6.18 G/DL and the “URIC ACID” value [3] was 1.92 mg/dL.
